In patent publication EP0164635A2, “Imidazothiazolemethylene-acetohydrazide derivatives, preparation thereof and pharmaceutical composition having diuretic activity” (MEDIOLANUM FARMACEUTICI s.r.l., priority 1984, dated 1985):

Columns and labels:
[1] = tested on: rats; assay: Diuretic activity: urinary sodium excretion over 6 hours after oral administration; type: in vivo, rat; conditions: read-out: Diuretic effect %; for response vs control in vivo at 20 mg/kg: dose 20 mg/kg oral; for response vs control in vivo at 5 mg/kg: dose 5 mg/kg oral
Description: The first series of tests was carried out to rats orally administered with distilled water (25 ml/kg) containing the product under test, previously suspended in Tween 80 (1% v/v with respect to water). Urina of the 6 hours following the treatment was collected in order to measure the sodium concentration, by means of atomic absorption. The ratio of the meq/100 g of body weight of the treated animals to the corresponding ratio of the meq/100 g of body weight of the control animals (treated with the sole vehicle) was calculated, in order to determine the dose of the test compound doubling or trebling or anyway increasing the sodium excretion.

[2] = in vivo; conditions: rat
[3] = tested on: rat; assay: Excreted urinary volumes after oral administration, with a second water load after 0-3 h; type: in vivo
Description: (§1) The compounds were administered by the oral route, under the same conditions as described in the previous test, but the animals, after the O-3 hours interval, were treated with further 25 ml/kg of distilled water, by intubation.

[4] = tested on: rat; assay: Excreted urinary electrolytes after oral administration, with a second water load after 0-3 h; type: in vivo
Description: as §1

[5] = rat, sodium urinary excretion in 6 h vs controls (control = 100)

CC(=O)Nc1nnc(S(N)(=O)=O)s1 [Acetazolamide, acetazolamide, reference compound]
response vs control in vivo at 2.5 mg/kg ([1]; Rattus norvegicus, po, 6 h): 200%

CN(C)CC(=O)NN=Cc1c(Cl)nc2sccn12 [Example 1]
LD50 ([2]; ip): ~250 mg/kg
LD50 ([2]; po): ~1500 mg/kg
response vs control in vivo at 20 mg/kg [1, 5]: 120%

Cc1nc2sccn2c1C=NNC(=O)CN(C)C [Example 2]
LD50 ([2]; ip): ~600 mg/kg
LD50 ([2]; po): ~1500 mg/kg

CN(C)CC(=O)NN=Cc1c(-c2ccccc2)nc2sccn12 [Example 3]
LD50 ([2]; ip): ~600 mg/kg
LD50 ([2]; po): ~600 mg/kg
response vs control in vivo at 5 mg/kg [1, 5]: 310%

CN(C)CC(=O)NN=Cc1c(-c2ccc(Cl)cc2)nc2sccn12 [Example 4]
LD50 ([2]; ip): > 1000 mg/kg
LD50 ([2]; po): > 1000 mg/kg
response vs control in vivo at 20 mg/kg [1, 5]: 170%

Cc1ccc(-c2nc3sccn3c2C=NNC(=O)CN(C)C)cc1 [Example 5]
LD50 ([2]; ip): > 3000 mg/kg
LD50 ([2]; po): > 3000 mg/kg
response vs control in vivo at 5 mg/kg [1, 5]: 130%

Cc1cn2c(C=NNC(=O)CN(C)C)c(C)nc2s1 [Example 6, N,N-dimethylamino-acetyl-[[2-methyl-6-methyl-imidazo[2,1-a]thiazole-5-yl]methylene]-hydrazide]
LD50 ([2]; ip): ~600 mg/kg
LD50 ([2]; po): ~1000 mg/kg
response vs control in vivo at 10 mg/kg ([1]; dose 10 mg/kg oral, rat, sodium urinary excretion in 6 h vs controls (control = 100)): 180%

Cc1csc2nc(-c3ccccc3)c(C=NNC(=O)CN(C)C)n12 [Example 7]
EXCRETED URINARY VOLUMES WITH RESPECT TO BODY WEIGHT ([3]; 2.5 mg/kg, 0-3 h): 0.0333 L/kg
EXCRETED URINARY VOLUMES WITH RESPECT TO BODY WEIGHT ([3]; 2.5 mg/kg, 0-6 h): 0.0469 L/kg
EXCRETED URINARY VOLUMES WITH RESPECT TO BODY WEIGHT ([3]; 2.5 mg/kg, 3-6 h): 0.0136 L/kg
EXCRETED URINARY VOLUMES WITH RESPECT TO BODY WEIGHT ([3]; 10 mg/kg, 0-3 h): 0.0326 L/kg
EXCRETED URINARY VOLUMES WITH RESPECT TO BODY WEIGHT ([3]; 10 mg/kg, 0-6 h): 0.0474 L/kg
EXCRETED URINARY VOLUMES WITH RESPECT TO BODY WEIGHT ([3]; 10 mg/kg, 3-6 h): 0.0147 L/kg
LD50 ([2]; ip): > 3000 mg/kg
LD50 ([2]; po): > 3000 mg/kg
response vs control in vivo at 0.5 mg/kg ([1]; dose 0.5 mg/kg oral, rat, sodium urinary excretion in 6 h vs controls (control = 100)): 250%
EXCRETED URINARY ELECTROLYTES WITH RESPECT TO BODY WEIGHT, Cl^- ([4]; 10 mg/kg, 0-3 h): 2.55 mEq/kg
EXCRETED URINARY ELECTROLYTES WITH RESPECT TO BODY WEIGHT, K^+ ([4]; 10 mg/kg, 0-3 h): 1.04 mEq/kg
EXCRETED URINARY ELECTROLYTES WITH RESPECT TO BODY WEIGHT, Na^+ ([4]; 10 mg/kg, 0-3 h): 2.55 mEq/kg
EXCRETED URINARY ELECTROLYTES WITH RESPECT TO BODY WEIGHT, Cl^- ([4]; 10 mg/kg, 0-6 h): 2.57 mEq/kg
EXCRETED URINARY ELECTROLYTES WITH RESPECT TO BODY WEIGHT, K^+ ([4]; 10 mg/kg, 0-6 h): 1.29 mEq/kg
EXCRETED URINARY ELECTROLYTES WITH RESPECT TO BODY WEIGHT, Na^+ ([4]; 10 mg/kg, 0-6 h): 2.71 mEq/kg
EXCRETED URINARY ELECTROLYTES WITH RESPECT TO BODY WEIGHT, Cl^- ([4]; 10 mg/kg, 3-6 h): 0.025 mEq/kg
EXCRETED URINARY ELECTROLYTES WITH RESPECT TO BODY WEIGHT, K^+ ([4]; 10 mg/kg, 3-6 h): 0.25 mEq/kg
EXCRETED URINARY ELECTROLYTES WITH RESPECT TO BODY WEIGHT, Na^+ ([4]; 10 mg/kg, 3-6 h): 0.16 mEq/kg
EXCRETED URINARY ELECTROLYTES WITH RESPECT TO BODY WEIGHT, Cl^- ([4]; head prints 10 mg/kg, 0-3 h): 1.53 mEq/kg
EXCRETED URINARY ELECTROLYTES WITH RESPECT TO BODY WEIGHT, K^+ ([4]; head prints 10 mg/kg, 0-3 h): 0.93 mEq/kg
EXCRETED URINARY ELECTROLYTES WITH RESPECT TO BODY WEIGHT, Na^+ ([4]; head prints 10 mg/kg, 0-3 h): 2.03 mEq/kg
EXCRETED URINARY ELECTROLYTES WITH RESPECT TO BODY WEIGHT, Cl^- ([4]; head prints 10 mg/kg, 0-6 h): 1.53 mEq/kg
EXCRETED URINARY ELECTROLYTES WITH RESPECT TO BODY WEIGHT, K^+ ([4]; head prints 10 mg/kg, 0-6 h): 1.26 mEq/kg
EXCRETED URINARY ELECTROLYTES WITH RESPECT TO BODY WEIGHT, Na^+ ([4]; head prints 10 mg/kg, 0-6 h): 2.17 mEq/kg
EXCRETED URINARY ELECTROLYTES WITH RESPECT TO BODY WEIGHT, Cl^- ([4]; head prints 10 mg/kg, 3-6 h): 0.0 mEq/kg
EXCRETED URINARY ELECTROLYTES WITH RESPECT TO BODY WEIGHT, K^+ ([4]; head prints 10 mg/kg, 3-6 h): 0.33 mEq/kg
EXCRETED URINARY ELECTROLYTES WITH RESPECT TO BODY WEIGHT, Na^+ ([4]; head prints 10 mg/kg, 3-6 h): 0.14 mEq/kg
